Experimental data: ChEMBL document CHEMBL4190178 (Medchemcomm, 2016)
pEC50: −log10 of the molar value. Calls of active or inactive are those of the source. No cut-off for these calls is given here.

Legend:
[1] = tested on: LNCaP; assay: Cytotoxicity against human LNCAP cells assessed as reduction in cell viability after 24 hrs by MTT assay; assay type: functional, cell-based
[2] = target: T1, Androgen receptor (Homo sapiens) (UniProt P10275); assay: Antagonist activity at androgen receptor in human LNCAP cells assessed as decrease in testosterone-induced PSA expression levels at 10 uM after 24 hrs by Western blot analysis; assay type: cell-based
T1 sequence (whole entry): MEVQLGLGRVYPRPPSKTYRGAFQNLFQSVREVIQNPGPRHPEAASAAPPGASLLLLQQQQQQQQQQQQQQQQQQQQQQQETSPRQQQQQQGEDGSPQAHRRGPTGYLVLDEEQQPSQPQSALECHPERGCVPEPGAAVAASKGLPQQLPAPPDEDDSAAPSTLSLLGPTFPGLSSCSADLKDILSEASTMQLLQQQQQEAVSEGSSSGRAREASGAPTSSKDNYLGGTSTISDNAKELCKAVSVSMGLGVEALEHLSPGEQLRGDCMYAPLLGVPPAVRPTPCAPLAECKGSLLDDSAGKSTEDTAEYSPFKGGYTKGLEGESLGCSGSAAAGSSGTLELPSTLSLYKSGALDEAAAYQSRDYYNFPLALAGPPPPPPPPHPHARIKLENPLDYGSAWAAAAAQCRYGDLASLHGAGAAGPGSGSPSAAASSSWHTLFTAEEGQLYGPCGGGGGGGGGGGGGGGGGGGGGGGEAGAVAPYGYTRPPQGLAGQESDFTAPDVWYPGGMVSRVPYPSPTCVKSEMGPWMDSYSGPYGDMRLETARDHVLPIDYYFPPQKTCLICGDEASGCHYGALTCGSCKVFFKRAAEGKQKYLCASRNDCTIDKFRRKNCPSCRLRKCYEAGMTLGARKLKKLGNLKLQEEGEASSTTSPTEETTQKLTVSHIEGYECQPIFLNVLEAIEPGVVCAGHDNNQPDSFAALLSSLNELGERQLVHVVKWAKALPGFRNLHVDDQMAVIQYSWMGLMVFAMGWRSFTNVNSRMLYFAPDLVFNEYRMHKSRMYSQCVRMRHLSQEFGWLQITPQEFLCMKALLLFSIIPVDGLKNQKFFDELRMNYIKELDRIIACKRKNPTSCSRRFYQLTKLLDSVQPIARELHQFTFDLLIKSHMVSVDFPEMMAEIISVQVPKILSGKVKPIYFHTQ

[3] = target: T1, Androgen receptor (Homo sapiens); assay: Antagonist activity at human androgen receptor expressed in African green monkey COS7 cells at 7.5 uM after 24 hrs by ARE-dual luciferase reporter gene assay; assay type: cell-based
[4] = tested on: PC-3; assay: Antiproliferative activity against human PC3 cells assessed as decrease in cell viability after 24 hrs by MTT assay; assay type: functional, cell-based; details: PC-3, 24 h
[5] = tested on: DU-145; assay: Antiproliferative activity against human DU145 cells assessed as decrease in cell viability after 24 hrs by MTT assay; assay type: functional, cell-based; details: DU-145, 24 h
[6] = tested on: LNCaP; assay: Antiproliferative activity against human LNCAP cells assessed as decrease in cell viability after 24 hrs by MTT assay; assay type: functional, cell-based
[7] = target: T2, Alpha-1A adrenergic receptor (Homo sapiens) (UniProt P35348); assay: Antagonist activity at human alpha1A adrenergic receptor expressed in Chem1 cells assessed as decrease in epinephrine-induced calcium mobilization by measuring relative fluorescence unit at 10 uM by fluoforte dye based fluorescence assay relative to epinephrine; assay type: functional, cell-based
T2 sequence (whole entry): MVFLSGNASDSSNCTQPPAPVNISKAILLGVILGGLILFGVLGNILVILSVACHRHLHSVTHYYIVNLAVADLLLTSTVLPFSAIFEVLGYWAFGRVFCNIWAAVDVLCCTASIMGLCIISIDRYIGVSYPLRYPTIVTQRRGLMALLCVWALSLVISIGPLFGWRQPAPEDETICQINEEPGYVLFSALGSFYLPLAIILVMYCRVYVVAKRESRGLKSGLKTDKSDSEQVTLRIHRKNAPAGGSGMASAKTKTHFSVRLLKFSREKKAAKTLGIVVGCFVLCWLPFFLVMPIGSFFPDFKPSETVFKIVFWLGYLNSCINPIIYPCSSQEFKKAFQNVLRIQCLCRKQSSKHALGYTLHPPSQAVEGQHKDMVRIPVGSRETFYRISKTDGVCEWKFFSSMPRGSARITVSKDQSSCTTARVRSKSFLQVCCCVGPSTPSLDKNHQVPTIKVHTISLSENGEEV

[8] = tested on: Rattus norvegicus; assay: Anti-androgenic activity in benign prostatic hyperplasia Sprague-Dawley rat model assessed as reduction in citral-induced prostate weight at 10 mg/kg, po qd co-administered with citral for 21 days starting post 8 days of citral alone treatment; assay type: functional; design: scale not given: the % may be the effect or the level left
[9] = tested on: Rattus norvegicus; assay: Toxicity in benign prostatic hyperplasia Sprague-Dawley rat model assessed as effect on seminal vesicle weight at 10 mg/kg, po qd co-administered with citral for 21 days starting post 8 days of citral alone treatment; assay type: organism-based; details: in vivo
[10] = tested on: Rattus norvegicus; assay: Toxicity in benign prostatic hyperplasia Sprague-Dawley rat model assessed as effect on testis weight at 10 mg/kg, po qd co-administered with citral for 21 days starting post 8 days of citral alone treatment; assay type: organism-based; details: in vivo
[11] = tested on: Rattus norvegicus; assay: Toxicity in benign prostatic hyperplasia Sprague-Dawley rat model assessed as effect on epididymis weight at 10 mg/kg, po qd co-administered with citral for 21 days starting post 8 days of citral alone treatment; assay type: organism-based; details: in vivo
[12] = tested on: Rattus norvegicus; assay: (§1) Anti-androgenic activity in citral-induced benign prostatic hyperplasia Sprague-Dawley rat model assessed as reduction in stromal component at 10 mg/kg, po qd co-administered with citral for 21 days starting post 8 days of citral alone treatment by hematoxyline and eosin staining based light microscopic analysis; assay type: functional, organism-based
[13] = tested on: Rattus norvegicus; assay: as §1, with “tissue differentiation into stroma” for “stromal component”; assay type: functional, organism-based
[14] = tested on: Rattus norvegicus; assay: as §1, with “tissue differentiation into acinar compartments” for “stromal component”; assay type: functional, organism-based
[15] = Cmax in Sprague-Dawley rat serum at 10 mg/kg, po administered as single dose by LC-MS/MS analysis; assay type: ADME, organism-based; design: dose 10 mg/kg, route oral
[16] = Tmax in Sprague-Dawley rat serum at 10 mg/kg, po administered as single dose by LC-MS/MS analysis; assay type: ADME, organism-based
[17] = AUClast in Sprague-Dawley rat serum at 10 mg/kg, po administered as single dose by LC-MS/MS analysis; assay type: ADME, organism-based; design: dose 10 mg/kg, route oral, time 0 - last
[18] = Apparent clearance in Sprague-Dawley rat serum at 10 mg/kg, po administered as single dose by LC-MS/MS analysis; assay type: ADME, organism-based
[19] = Apparent volume of distribution in Sprague-Dawley rat serum at 10 mg/kg, po administered as single dose by LC-MS/MS analysis; assay type: ADME, organism-based
[20] = Cmax in Sprague-Dawley rat prostate at 10 mg/kg, po administered as single dose by LC-MS/MS analysis; assay type: ADME, organism-based, Prostate gland; design: dose 10 mg/kg, route oral
[21] = Tmax in Sprague-Dawley rat prostate at 10 mg/kg, po administered as single dose by LC-MS/MS analysis; assay type: ADME, organism-based, Prostate gland
[22] = AUClast in Sprague-Dawley rat prostate at 10 mg/kg, po administered as single dose by LC-MS/MS analysis; assay type: ADME, organism-based, Prostate gland; details: in vivo
[23] = Apparent clearance in Sprague-Dawley rat prostate at 10 mg/kg, po administered as single dose by LC-MS/MS analysis; assay type: ADME, organism-based, Prostate gland; details: in vivo
[24] = Ratio of AUClast in Sprague-Dawley rat prostate to serum at 10 mg/kg, po administered as single dose by LC-MS/MS analysis; assay type: ADME, organism-based; details: read-out: Ratio AUC
[25] = Apparent volume of distribution in Sprague-Dawley rat prostate at 10 mg/kg, po administered as single dose by LC-MS/MS analysis; assay type: ADME, organism-based, Prostate gland; details: in vivo
[26] = Cmax in Sprague-Dawley rat hypothalamus at 10 mg/kg, po administered as single dose by LC-MS/MS analysis; assay type: ADME, organism-based; design: dose 10 mg/kg, route oral
[27] = Tmax in Sprague-Dawley rat hypothalamus at 10 mg/kg, po administered as single dose by LC-MS/MS analysis; assay type: ADME, organism-based
[28] = AUClast in Sprague-Dawley rat hypothalamus at 10 mg/kg, po administered as single dose by LC-MS/MS analysis; assay type: ADME, organism-based; details: in vivo
[29] = Ratio of AUClast in Sprague-Dawley rat hypothalamus to serum at 10 mg/kg, po administered as single dose by LC-MS/MS analysis; assay type: ADME, organism-based; details: read-out: Ratio AUC
[30] = Apparent clearance in Sprague-Dawley rat hypothalamus at 10 mg/kg, po administered as single dose by LC-MS/MS analysis; assay type: ADME, organism-based; details: in vivo
[31] = Apparent volume of distribution in Sprague-Dawley rat hypothalamus at 10 mg/kg, po administered as single dose by LC-MS/MS analysis; assay type: ADME, organism-based; details: in vivo

Molecule `O=C(CN1CCN(c2ccc([N+](=O)[O-])cc2)CC1)N1CCN(c2ncccn2)CC1` has a pEC50 [1] of 4.17.
With `O=C(CN1CCN(c2ccccn2)CC1)N1CCN(c2ccc([N+](=O)[O-])cc2)CC1` the pEC50 [1] was 4.26.
Work on `O=C(N1CCN(c2ccc([N+](=O)[O-])c(C(F)(F)F)c2)CC1)N1CCN(c2ccccn2)CC1` yielded a pEC50 [1] of 4.10.
With `COc1ccccc1N1CCN(C(=O)CN2CCN(c3ncccn3)CC2)CC1` the pEC50 [1] was 4.32.
`O=C(CN1CCN(c2ncccn2)CC1)N1CCN(c2ncccn2)CC1` gave a pEC50 [1] of 4.32.
With `O=C(CCl)N1CCN(c2ccc(C(F)(F)F)cc2[N+](=O)[O-])CC1` the pEC50 [1] was 4.39.
`O=C(CN1CCN(c2ncccn2)CC1)N1CCN(c2ccc([N+](=O)[O-])cc2)CC1` gave a pEC50 [1] of 4.29.
Molecule `O=C(N1CCN(c2ccc([N+](=O)[O-])cc2)CC1)N1CCN(c2ccccn2)CC1` has a pEC50 [1] of 4.16.
With `O=C(CN1CCN(c2ccc([N+](=O)[O-])cc2)CC1)N1CCN(c2ccc([N+](=O)[O-])cc2)CC1` the pEC50 [1] was 4.95, the Activity [2] was “Active” and the Activity [3] was “Active”. The pEC50 [4] was under 4.10, the pEC50 [5] was under 4.10 and the pEC50 [6] was 4.95. The fold change (FC) [7] was 1.6, the Activity [8] was 46.2% and the Activity [9] was “Non-Toxic”. For the same molecule, the Activity [10] was “Non-Toxic”, the Activity [11] was “Non-Toxic” and the Activity [12] was “Active”. For the same molecule, the Activity [13] was “Active”, the Activity [14] was “Active” and the Cmax [15] was 1100 ng/mL. The Tmax [16] was 10 h, the AUC(0-t) [17] was 24100 ng·h/mL and the CL/F [18] was 6.67 mL/min/kg. It also gave a Vd/F [19] of 4.2 L/kg, a Cmax [20] of 2400 ng/g and a Tmax [21] of 10 h. It also gave an AUClast [22] of 37.3 µg·h/g, a CL/F [23] of 268.2 g/h/kg and a Kp [24] of 1.5. The Vd/F [25] was 2311.9 g/kg, the Cmax [26] was 1200 ng/g and the Tmax [27] was 10 h. For the same molecule, the AUClast [28] was 26.1 µg·h/g, the Kp [29] was 1.1 and the CL/F [30] was 383.2 g/h/kg. The Vd/F [31] was 3313.7 g/kg.
`O=C(CN1CCN(c2ccccn2)CC1)N1CCN(c2ncccn2)CC1` showed a pEC50 [1] of 4.30.
Work on `O=C(CN1CCN(c2ccc(C(F)(F)F)cc2[N+](=O)[O-])CC1)N1CCN(c2ccc(C(F)(F)F)cc2[N+](=O)[O-])CC1` yielded a pEC50 [1] of 4.32.
`O=C(CN1CCN(c2ccc([N+](=O)[O-])cc2C(F)(F)F)CC1)N1CCN(c2ccc([N+](=O)[O-])cc2C(F)(F)F)CC1` gave a pEC50 [1] of 4.33.
For `CC(C)C(=O)Nc1ccc([N+](=O)[O-])c(C(F)(F)F)c1` [FLUTAMIDE], the pEC50 [1] was 5.15, the Activity [8] was 51.8% and the Activity [9] was “Non-Toxic”. The Activity [10] was “Non-Toxic”, the Activity [11] was “Non-Toxic” and the Activity [12] was “Active”. The Activity [13] was “Active” and the Activity [14] was “Active”.
